In ChEMBL document CHEMBL5291721, “A preclinical secondary pharmacology resource illuminates target-adverse drug reaction associations of marketed drugs” (Nat Commun, 2023) one finds AC50 data, which are given here for 9 molecules.

The target of one experiment is Acetylcholinesterase (Homo sapiens, UniProt P22303). Type of experiment: functional.
A further experiment has as its target T1, Adenosine receptor A3 (Homo sapiens, UniProt P0DMS8).
T1 sequence (P0DMS8 whole entry): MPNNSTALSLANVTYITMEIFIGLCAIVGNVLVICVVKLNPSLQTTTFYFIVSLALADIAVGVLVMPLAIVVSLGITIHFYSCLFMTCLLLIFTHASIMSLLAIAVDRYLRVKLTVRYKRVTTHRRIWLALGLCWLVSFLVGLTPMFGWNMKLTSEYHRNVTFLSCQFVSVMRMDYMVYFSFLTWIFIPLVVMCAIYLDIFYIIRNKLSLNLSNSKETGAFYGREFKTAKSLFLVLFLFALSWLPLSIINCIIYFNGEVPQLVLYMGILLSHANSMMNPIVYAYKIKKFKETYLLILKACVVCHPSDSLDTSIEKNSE

Experiment [1] has as its target T2, Alpha-1A adrenergic receptor (Homo sapiens, UniProt P35348).
T2 sequence (P35348 whole entry): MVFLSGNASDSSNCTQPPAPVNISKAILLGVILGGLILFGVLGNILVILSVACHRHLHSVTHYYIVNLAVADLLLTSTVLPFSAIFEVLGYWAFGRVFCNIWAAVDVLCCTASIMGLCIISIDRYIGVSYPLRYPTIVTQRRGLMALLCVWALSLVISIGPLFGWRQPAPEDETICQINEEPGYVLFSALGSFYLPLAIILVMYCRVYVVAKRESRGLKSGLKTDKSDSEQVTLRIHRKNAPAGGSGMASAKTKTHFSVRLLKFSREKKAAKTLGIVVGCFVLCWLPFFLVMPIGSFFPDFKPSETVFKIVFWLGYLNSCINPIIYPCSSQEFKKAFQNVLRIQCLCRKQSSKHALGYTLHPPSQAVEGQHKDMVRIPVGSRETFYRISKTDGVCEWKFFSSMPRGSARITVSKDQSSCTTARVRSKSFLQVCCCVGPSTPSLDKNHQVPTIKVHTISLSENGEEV
Type of experiment: functional, cell-based.

In a further experiment the target is D(1A) dopamine receptor (Homo sapiens, UniProt P21728).
Another experiment addresses Prothrombin (Homo sapiens, UniProt P00734). Type of experiment: functional.
Experiment [2] has as its target 5-hydroxytryptamine receptor 2B (Homo sapiens, UniProt P41595). Type of experiment: functional, cell-based.
The target in experiment [3] is Voltage-gated inwardly rectifying potassium channel KCNH2 (Homo sapiens, UniProt Q12809). Type of experiment: functional. The settings on record: read-out: AC50.
Experiment [4] addresses T3, Amine oxidase [flavin-containing] A (Homo sapiens, UniProt P21397).
T3 sequence (P21397 whole entry): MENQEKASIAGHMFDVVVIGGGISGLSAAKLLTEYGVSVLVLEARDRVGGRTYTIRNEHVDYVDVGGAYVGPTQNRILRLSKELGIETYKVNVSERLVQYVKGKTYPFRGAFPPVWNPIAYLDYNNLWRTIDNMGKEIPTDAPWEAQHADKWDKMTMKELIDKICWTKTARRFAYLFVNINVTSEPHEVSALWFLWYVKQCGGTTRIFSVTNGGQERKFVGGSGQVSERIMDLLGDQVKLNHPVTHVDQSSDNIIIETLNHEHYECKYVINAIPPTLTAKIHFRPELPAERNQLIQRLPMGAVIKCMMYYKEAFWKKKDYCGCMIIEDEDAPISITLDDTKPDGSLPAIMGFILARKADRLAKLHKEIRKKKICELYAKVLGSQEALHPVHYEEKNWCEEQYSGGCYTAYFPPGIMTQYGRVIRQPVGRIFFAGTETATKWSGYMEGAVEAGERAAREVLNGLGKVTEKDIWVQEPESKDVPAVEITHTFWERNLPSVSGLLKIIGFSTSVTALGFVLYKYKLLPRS
Type of experiment: functional.

The next experiment concerns the target Mu-type opioid receptor (Homo sapiens, UniProt P35372).
Experiment [5] deals with 3',5'-cyclic-AMP phosphodiesterase 4A (Homo sapiens, UniProt P27815). Type of experiment: functional.
The target of experiment [6] is Prostaglandin G/H synthase 1 (Homo sapiens, UniProt P23219). Type of experiment: functional.
Experiment [7] addresses Sodium-dependent noradrenaline transporter (Homo sapiens, UniProt P23975).
The target of experiment [8] is Sodium-dependent dopamine transporter (Homo sapiens, UniProt Q01959).
Experiment [9] deals with Sodium-dependent serotonin transporter (Homo sapiens, UniProt P31645).
Experiment [10] addresses T4, Thromboxane A2 receptor (Homo sapiens, UniProt P21731).
T4 sequence (P21731 whole entry): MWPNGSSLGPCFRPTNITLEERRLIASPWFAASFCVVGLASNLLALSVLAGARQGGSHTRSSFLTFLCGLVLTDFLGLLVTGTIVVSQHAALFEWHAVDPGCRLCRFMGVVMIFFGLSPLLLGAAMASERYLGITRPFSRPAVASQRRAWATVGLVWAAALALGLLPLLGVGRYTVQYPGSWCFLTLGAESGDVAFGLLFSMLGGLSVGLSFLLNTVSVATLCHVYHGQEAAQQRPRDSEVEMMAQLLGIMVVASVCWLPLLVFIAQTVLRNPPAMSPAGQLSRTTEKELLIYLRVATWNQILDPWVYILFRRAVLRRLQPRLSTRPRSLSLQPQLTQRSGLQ
Type of experiment: functional, cell-based.

Experiment [11] concerns the target T4, Thromboxane A2 receptor. Type of experiment: functional, cell-based. The source holds these as a separate data set.

A value given as a limit tells only on which side of the number the result lay.
Also: assay procedure not described here.

Sequence of Mu-type opioid receptor (P35372 whole entry): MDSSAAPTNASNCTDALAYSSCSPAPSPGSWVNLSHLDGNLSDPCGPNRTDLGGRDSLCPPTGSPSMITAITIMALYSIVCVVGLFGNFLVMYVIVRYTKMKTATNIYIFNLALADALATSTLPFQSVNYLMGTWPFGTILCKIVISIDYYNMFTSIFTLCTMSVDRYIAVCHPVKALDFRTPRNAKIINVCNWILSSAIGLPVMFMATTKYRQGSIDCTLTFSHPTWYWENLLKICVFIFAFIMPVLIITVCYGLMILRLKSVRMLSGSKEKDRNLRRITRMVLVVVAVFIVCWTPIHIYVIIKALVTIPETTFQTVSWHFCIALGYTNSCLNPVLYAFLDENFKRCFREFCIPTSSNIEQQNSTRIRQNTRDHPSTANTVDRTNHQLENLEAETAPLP
Sequence of Prostaglandin G/H synthase 1 (P23219 whole entry): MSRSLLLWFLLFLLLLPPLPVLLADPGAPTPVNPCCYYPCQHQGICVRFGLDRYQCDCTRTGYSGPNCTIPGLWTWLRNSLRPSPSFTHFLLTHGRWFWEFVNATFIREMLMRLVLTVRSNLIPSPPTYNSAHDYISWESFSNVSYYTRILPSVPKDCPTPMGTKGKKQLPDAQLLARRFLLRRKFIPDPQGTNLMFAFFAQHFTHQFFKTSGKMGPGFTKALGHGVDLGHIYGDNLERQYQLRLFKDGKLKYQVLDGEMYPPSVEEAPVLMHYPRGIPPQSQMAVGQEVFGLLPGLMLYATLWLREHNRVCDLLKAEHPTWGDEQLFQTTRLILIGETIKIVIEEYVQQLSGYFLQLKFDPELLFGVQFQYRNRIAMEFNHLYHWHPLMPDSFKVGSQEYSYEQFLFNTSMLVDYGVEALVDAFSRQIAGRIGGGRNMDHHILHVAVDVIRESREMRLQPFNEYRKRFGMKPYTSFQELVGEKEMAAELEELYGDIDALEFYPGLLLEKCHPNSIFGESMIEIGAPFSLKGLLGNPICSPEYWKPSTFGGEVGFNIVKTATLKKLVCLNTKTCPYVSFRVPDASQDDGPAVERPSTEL
Sequence of 5-hydroxytryptamine receptor 2B (P41595 whole entry): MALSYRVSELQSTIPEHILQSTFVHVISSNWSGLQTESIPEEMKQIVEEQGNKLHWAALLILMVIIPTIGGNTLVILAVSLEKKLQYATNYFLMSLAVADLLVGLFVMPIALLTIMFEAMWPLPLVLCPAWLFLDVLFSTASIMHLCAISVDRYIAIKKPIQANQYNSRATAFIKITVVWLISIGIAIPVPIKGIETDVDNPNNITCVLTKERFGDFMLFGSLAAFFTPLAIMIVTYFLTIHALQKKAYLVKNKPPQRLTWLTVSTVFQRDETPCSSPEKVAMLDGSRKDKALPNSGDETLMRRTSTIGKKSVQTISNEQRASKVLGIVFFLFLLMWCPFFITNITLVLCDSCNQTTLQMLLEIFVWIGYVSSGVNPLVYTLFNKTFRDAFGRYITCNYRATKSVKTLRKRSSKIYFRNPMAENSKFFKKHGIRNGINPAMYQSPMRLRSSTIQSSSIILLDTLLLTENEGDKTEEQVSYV
Sequence of Sodium-dependent dopamine transporter (Q01959 whole entry): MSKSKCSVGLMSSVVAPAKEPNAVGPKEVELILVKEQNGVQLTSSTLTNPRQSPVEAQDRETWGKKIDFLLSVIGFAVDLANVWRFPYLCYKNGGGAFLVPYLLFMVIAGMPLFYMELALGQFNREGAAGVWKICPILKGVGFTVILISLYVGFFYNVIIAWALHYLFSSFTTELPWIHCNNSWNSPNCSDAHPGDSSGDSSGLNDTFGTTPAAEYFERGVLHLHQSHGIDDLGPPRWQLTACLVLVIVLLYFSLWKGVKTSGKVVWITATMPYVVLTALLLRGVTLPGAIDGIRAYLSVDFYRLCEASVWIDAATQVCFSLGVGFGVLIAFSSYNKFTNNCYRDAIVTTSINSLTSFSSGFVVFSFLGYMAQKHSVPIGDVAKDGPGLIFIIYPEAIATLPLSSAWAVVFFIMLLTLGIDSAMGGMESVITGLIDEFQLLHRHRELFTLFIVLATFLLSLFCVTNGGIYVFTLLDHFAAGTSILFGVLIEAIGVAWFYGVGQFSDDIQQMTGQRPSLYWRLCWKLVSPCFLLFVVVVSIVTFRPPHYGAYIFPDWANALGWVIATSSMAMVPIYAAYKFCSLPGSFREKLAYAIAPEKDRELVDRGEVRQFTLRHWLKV
Sequence of Sodium-dependent noradrenaline transporter (P23975 whole entry): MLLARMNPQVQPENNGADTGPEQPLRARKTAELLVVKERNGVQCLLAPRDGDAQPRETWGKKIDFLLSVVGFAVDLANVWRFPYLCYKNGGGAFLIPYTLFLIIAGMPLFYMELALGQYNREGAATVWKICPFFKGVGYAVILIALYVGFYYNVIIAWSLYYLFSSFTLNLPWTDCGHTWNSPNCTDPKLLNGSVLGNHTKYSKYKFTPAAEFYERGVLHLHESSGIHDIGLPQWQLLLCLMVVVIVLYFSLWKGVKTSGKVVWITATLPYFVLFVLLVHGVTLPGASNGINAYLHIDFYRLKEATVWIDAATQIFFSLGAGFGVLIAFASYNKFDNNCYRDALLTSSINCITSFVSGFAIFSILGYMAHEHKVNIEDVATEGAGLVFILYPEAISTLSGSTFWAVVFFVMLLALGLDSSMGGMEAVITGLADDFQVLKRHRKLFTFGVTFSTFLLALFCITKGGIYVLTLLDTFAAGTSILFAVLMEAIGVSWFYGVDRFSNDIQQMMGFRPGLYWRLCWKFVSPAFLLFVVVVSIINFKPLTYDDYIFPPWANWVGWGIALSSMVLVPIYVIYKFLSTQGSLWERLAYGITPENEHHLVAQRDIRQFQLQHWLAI
Sequence of 3',5'-cyclic-AMP phosphodiesterase 4A (P27815 whole entry): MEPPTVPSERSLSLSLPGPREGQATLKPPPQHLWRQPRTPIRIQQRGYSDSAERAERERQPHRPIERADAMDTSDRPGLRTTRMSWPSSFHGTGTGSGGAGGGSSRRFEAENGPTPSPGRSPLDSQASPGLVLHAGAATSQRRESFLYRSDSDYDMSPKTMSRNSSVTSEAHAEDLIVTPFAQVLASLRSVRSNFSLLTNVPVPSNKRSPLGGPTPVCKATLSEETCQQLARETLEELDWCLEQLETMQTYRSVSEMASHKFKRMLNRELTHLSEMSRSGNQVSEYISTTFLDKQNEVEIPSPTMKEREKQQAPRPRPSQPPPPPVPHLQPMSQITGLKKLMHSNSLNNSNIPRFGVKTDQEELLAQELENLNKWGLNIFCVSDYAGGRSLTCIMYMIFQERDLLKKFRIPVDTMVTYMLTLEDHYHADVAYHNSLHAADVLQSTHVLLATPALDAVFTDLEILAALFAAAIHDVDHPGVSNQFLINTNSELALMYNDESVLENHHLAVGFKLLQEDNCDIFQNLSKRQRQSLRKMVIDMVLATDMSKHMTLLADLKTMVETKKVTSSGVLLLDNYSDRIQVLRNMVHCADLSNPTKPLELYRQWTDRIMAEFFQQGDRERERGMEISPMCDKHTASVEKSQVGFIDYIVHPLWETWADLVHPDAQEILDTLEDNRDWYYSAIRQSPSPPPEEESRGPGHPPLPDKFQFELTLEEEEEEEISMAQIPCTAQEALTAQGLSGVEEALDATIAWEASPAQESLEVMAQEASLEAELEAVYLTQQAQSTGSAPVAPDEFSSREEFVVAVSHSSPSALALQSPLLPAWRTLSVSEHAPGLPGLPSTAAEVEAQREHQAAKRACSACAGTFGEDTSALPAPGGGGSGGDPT
Sequence of Sodium-dependent serotonin transporter (P31645 whole entry): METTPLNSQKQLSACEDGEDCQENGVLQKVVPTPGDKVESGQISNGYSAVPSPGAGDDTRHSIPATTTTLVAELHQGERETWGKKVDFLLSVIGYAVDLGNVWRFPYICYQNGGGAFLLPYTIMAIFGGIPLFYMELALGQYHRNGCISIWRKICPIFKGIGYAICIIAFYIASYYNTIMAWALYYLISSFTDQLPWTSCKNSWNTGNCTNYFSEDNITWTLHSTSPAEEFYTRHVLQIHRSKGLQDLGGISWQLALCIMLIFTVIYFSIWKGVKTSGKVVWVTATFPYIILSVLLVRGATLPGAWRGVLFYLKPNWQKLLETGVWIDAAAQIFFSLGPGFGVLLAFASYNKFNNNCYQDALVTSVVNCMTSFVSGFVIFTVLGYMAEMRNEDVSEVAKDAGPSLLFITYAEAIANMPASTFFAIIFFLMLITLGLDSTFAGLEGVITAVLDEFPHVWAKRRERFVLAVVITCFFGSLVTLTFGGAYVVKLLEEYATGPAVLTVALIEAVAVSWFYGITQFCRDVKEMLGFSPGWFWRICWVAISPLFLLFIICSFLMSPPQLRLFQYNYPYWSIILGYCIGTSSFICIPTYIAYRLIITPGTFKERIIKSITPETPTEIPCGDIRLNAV
Sequence of D(1A) dopamine receptor (P21728 whole entry): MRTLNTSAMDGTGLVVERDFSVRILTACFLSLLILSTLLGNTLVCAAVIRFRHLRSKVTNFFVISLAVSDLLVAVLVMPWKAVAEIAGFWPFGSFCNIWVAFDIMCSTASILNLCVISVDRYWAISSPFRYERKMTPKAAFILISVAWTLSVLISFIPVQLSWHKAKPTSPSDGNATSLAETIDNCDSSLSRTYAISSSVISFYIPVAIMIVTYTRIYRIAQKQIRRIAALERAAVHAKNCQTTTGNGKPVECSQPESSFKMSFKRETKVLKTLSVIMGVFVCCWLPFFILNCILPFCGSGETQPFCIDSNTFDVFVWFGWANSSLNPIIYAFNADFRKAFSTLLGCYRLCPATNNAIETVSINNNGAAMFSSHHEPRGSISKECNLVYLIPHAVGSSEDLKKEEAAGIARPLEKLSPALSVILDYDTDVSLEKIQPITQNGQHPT

Consider `Nc1nc(-n2cc(C(=O)O)c(=O)c3cc(F)c(N4CC(O)C4)c(Cl)c32)c(F)cc1F` [DELAFLOXACIN], for which the concentration at half-maximal activity (AC50) (usually the concentration giving half of the maximal activity seen) on Acetylcholinesterase is > 30 µM; at Adenosine receptor A3 it was > 3 µM; in experiment [1], > 30 µM; at D(1A) dopamine receptor, > 30 µM; on Prothrombin, > 30 µM; in experiment [2] it was > 30 µM. The AC50 (in [3]; in experiment [4]; on Mu-type opioid receptor; in [5]; in experiment [6]; in [7]) was > 30 µM each time. Also, the AC50 (in experiment [8]; in experiment [9]; at Thromboxane A2 receptor [10]; at Thromboxane A2 receptor [11]) was > 30 µM each time.
In the case of `COc1ccc(-c2cc(=O)c3c(O)cc(O[C@@H]4O[C@H](CO[C@@H]5O[C@@H](C)[C@H](O)[C@@H](O)[C@H]5O)[C@@H](O)[C@H](O)[C@H]4O)cc3o2)cc1O` [DIOSMIN], the half-maximal activity concentration (AC50) (on Acetylcholinesterase; at Adenosine receptor A3; in experiment [1]; on D(1A) dopamine receptor; on Prothrombin; in experiment [2]) was > 30 µM in each case. For the same molecule, the AC50 (in [3]; in [4]; on Mu-type opioid receptor; in [5]; in [6]; in [7]) was > 30 µM in each case. Further, the half-maximal activity concentration (AC50) (in [8]; in [9]; on Thromboxane A2 receptor [10]; at Thromboxane A2 receptor [11]) was > 30 µM each time.
Regarding `O=C(Nc1ccccc1)OCC(CN1CCCCC1)OC(=O)Nc1ccccc1` (centres undefined) [DIPERODON], the concentration at half-maximal activity (AC50) (at Acetylcholinesterase; on Adenosine receptor A3; in [1]; on D(1A) dopamine receptor; at Prothrombin; in experiment [2]) was > 30 µM in each case. The half-maximal activity concentration (AC50) in [3] was 5.4 µM; in experiment [4], > 30 µM; at Mu-type opioid receptor, 11.2 µM; in [5], > 30 µM; in [6] it was > 30 µM; in experiment [7], > 30 µM. The AC50 (in [8]; in experiment [9]; at Thromboxane A2 receptor [10]; at Thromboxane A2 receptor [11]) was > 30 µM in each case.
With `CCOc1ccc(/C=C2\NCCc3cc(OCC)c(OCC)cc32)cc1OCC` [DROTAVERINE], the AC50 was 26.1 µM at Acetylcholinesterase; 26.4 µM at Adenosine receptor A3; > 10 µM in experiment [1]; > 30 µM on D(1A) dopamine receptor; > 30 µM at Prothrombin; > 30 µM in experiment [2]. Moreover, the concentration at half-maximal activity (AC50) in experiment [3] is 2.9 µM; in [4] it was > 30 µM; on Mu-type opioid receptor it was > 10 µM; in [5] it was 1.68 µM; in experiment [6] it was > 10 µM; in experiment [7], > 30 µM. Also, the AC50 was > 30 µM in experiment [8], 3 µM in [9], > 30 µM at Thromboxane A2 receptor [10] and > 30 µM at Thromboxane A2 receptor [11].
Take `CCOC(=O)C(c1c(O)c2ccccc2oc1=O)c1c(O)c2ccccc2oc1=O` [ETHYL BISCOUMACETATE]: the AC50 was > 30 µM at Acetylcholinesterase; 17.3 µM on Adenosine receptor A3; > 30 µM in experiment [1]; > 30 µM at D(1A) dopamine receptor; > 30 µM at Prothrombin; > 30 µM in experiment [2]. The concentration at half-maximal activity (AC50) (in experiment [3]; in [4]; on Mu-type opioid receptor; in [5]; in [6]; in experiment [7]) was > 30 µM in each case. Further, the AC50 (in experiment [8]; in [9]; at Thromboxane A2 receptor [10]; at Thromboxane A2 receptor [11]) was > 30 µM throughout.
Take `Cc1nc(-c2ccc(OCC(C)C)c(C#N)c2)sc1C(=O)O` [FEBUXOSTAT]: the AC50 (on Acetylcholinesterase; on Adenosine receptor A3; in [1]; at D(1A) dopamine receptor; at Prothrombin; in [2]) was > 30 µM throughout. Moreover, the concentration at half-maximal activity (AC50) was > 30 µM in [3]; > 30 µM in experiment [4]; > 30 µM at Mu-type opioid receptor; 29 µM in experiment [5]; > 30 µM in experiment [6]; > 30 µM in experiment [7]. Further, the AC50 (in experiment [8]; in experiment [9]; at Thromboxane A2 receptor [10]; on Thromboxane A2 receptor [11]) was > 30 µM throughout.
For the molecule `O=C1NCC2(CCN(CCc3ccccc3)CC2)O1` [FENSPIRIDE], the AC50 on Acetylcholinesterase was > 30 µM; on Adenosine receptor A3 it was > 30 µM; in experiment [1], > 30 µM; at D(1A) dopamine receptor it was 20.8 µM; at Prothrombin, > 30 µM; in experiment [2], > 30 µM. Further, the concentration at half-maximal activity (AC50) (in experiment [3]; in experiment [4]; at Mu-type opioid receptor; in [5]; in [6]; in experiment [7]) was > 30 µM in each case. For the same molecule, the half-maximal activity concentration (AC50) (in experiment [8]; in experiment [9]; at Thromboxane A2 receptor [10]; on Thromboxane A2 receptor [11]) was > 30 µM in each case.
In the case of `C[C@@H]1C[C@H]2[C@@H]3C[C@H](F)C4=CC(=O)C=C[C@]4(C)[C@@]3(F)[C@@H](O)C[C@]2(C)[C@@]1(O)C(=O)COC(=O)C(C)(C)C` [FLUMETHASONE PIVALATE], the AC50 (at Acetylcholinesterase; on Adenosine receptor A3; in experiment [1]; on D(1A) dopamine receptor; at Prothrombin; in experiment [2]) was > 30 µM each time. Moreover, the half-maximal activity concentration (AC50) (in experiment [3]; in experiment [4]; on Mu-type opioid receptor; in [5]; in [6]; in experiment [7]) was > 30 µM throughout. Besides, the concentration at half-maximal activity (AC50) (in experiment [8]; in experiment [9]; on Thromboxane A2 receptor [10]; at Thromboxane A2 receptor [11]) was > 30 µM throughout.
With `C[C@@H]1C[C@H]2[C@@H]3C[C@H](F)C4=CC(=O)C(Cl)=C[C@]4(C)[C@@]3(F)[C@@H](O)C[C@]2(C)[C@@]1(O)C(=O)CO` [HALOMETASONE], the half-maximal activity concentration (AC50) at Acetylcholinesterase is > 30 µM; at Adenosine receptor A3, > 30 µM; in experiment [1], 23.3 µM; at D(1A) dopamine receptor it was > 30 µM; on Prothrombin, > 30 µM; in experiment [2] it was > 30 µM. Besides, the concentration at half-maximal activity (AC50) (in [3]; in [4]; at Mu-type opioid receptor; in [5]; in [6]; in [7]) was > 30 µM in each case. Also, the concentration at half-maximal activity (AC50) is > 30 µM in experiment [8], > 30 µM in [9], > 30 µM at Thromboxane A2 receptor [10] and 18.6 µM at Thromboxane A2 receptor [11].
